Article PMC1971073, “Comparative genomics of bacterial and plant folate synthesis and salvage: predictions and validations” (BMC Genomics, 2007)

Target: T1, Arabidopsis ADCS (PabAa-PabAb) (Arabidopsis thaliana, UniProt Q8LPN3)
T1 construct: bifunctional PabAa-PabAb ADC synthase in pLOI707HE; extract of E. coli BN1163 (pabA pabB mutant)
T1 sequence (Q8LPN3 46-919): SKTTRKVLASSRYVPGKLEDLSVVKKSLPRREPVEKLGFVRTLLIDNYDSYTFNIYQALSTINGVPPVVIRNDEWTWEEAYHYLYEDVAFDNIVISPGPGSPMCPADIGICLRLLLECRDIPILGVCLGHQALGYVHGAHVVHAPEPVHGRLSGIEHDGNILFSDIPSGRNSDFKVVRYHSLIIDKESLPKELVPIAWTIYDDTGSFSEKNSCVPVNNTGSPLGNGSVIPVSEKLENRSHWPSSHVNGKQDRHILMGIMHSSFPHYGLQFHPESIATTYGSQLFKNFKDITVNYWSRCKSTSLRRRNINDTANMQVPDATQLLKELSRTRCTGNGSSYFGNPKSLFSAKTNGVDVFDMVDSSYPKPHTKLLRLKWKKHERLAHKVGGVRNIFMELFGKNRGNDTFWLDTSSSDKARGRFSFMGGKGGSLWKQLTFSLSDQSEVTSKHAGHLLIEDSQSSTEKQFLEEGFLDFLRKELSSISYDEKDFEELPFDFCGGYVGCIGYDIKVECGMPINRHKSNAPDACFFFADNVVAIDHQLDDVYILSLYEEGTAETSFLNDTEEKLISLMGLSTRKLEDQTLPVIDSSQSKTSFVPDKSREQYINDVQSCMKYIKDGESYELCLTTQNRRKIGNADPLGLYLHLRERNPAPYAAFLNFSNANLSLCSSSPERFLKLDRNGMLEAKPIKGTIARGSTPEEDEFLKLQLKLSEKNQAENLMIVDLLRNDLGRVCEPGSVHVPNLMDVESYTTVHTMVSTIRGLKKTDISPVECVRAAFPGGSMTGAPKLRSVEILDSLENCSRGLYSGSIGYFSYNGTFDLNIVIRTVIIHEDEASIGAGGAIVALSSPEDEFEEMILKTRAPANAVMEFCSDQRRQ
Test: pABA formation in cell extract, coupled to E. coli PabC (ADC lyase), HPLC with fluorescence detection
Type: biochemical
Details: E. coli PabC extract added, 37 °C, 1 h

## C=C(O[C@@H]1C=C(C(=O)O)C=C[C@H]1O)C(=O)O [chorismate]
Glutamine as amino donor
  pABA formation in cell extract, coupled to E. coli PabC (ADC lyase), HPLC with f: Arabidopsis PabAa-PabAb formed pABA only if PabAc was added

## NC(=O)CC[C@H](N)C(=O)O [glutamine]
Chorismate as co-substrate
  pABA formation in cell extract, coupled to E. coli PabC (ADC lyase), HPLC with f: Arabidopsis PabAa-PabAb formed pABA only if PabAc was added
